Where only a bound is given, the exact number is not on record here.

One experiment addresses T1, F508del in NIH 3T3 cells (Homo sapiens, UniProt P13569, DEL508-508).
T1 construct: expressed in transfected cells
Kind of experiment: 3T3 assay: membrane potential optical assay for F508del correction. Type of experiment: cell-based, mouse. Particulars: for EC50: F508del NIH 3T3 cells, compound incubation 18-24 hours at 37° C., forskolin activation, read-out: 3T3 EC50; for Emax: NIH3T3, F508del NIH 3T3 cells, efficacy compared to lumacaftor in combination with acutely added 300 nM Ivacaftor, read-out: 3T3 Max Activity (%). From the text:
a. Membrane Potential Optical Methods for Assaying F508del Modulation Properties of Compounds
The assay utilizes fluorescent voltage sensing dyes to measure changes in membrane potential using a fluorescent plate reader (e.g., FLIPR III, Molecular Devices, Inc.) as a readout for increase in functional F508del in NIH 3T3 cells. The driving force for the response is the creation of a chloride ion gradient in conjunction with channel activation by a single liquid addition step after the cells have previously been treated with compounds and subsequently loaded with a voltage sensing dye.
b. Identification of Corrector Compounds
To identify correctors of F508del, a single-addition HTS assay format was developed. This HTS assay utilizes fluorescent voltage sensing dyes to measure changes in membrane potential on the FLIPR III as a measurement for increase in gating (conductance) of F508del in F508del NIH 3T3 cells. The F508del NIH 3T3 cell cultures were incubated with the corrector compounds at a range of concentrations for 18-24 hours at 37° C., and subsequently loaded with a redistribution dye. The driving force for the response is a Cl^− ion gradient in conjunction with channel activation with forskolin in a single liquid addition step using a fluorescent plate reader such as FLIPR III.
Bath Solution #1: (in mM) NaCl 160, KCl 4.5, CaCl2 2, MgCl2 1, HEPES 10, pH 7.4 with NaOH.
Chloride-free bath solution: Chloride salts in Bath Solution #1 (above) are substituted with gluconate salts.
NIH3T3 mouse fibroblasts stably expressing F508del are used for optical measurements of membrane potential. The cells are maintained at 37° C. in 5% CO2 and 90% humidity in Dulbecco's modified Eagle's medium supplemented with 2 mM glutamine, 10% fetal bovine serum, 1×NEAA, b-ME, 1× pen/strep, and 25 mM HEPES in 175 cm^2 culture flasks. For all optical assays, the cells were seeded at ˜20,000/well in 384-well Matrigel-coated plates. For the correction assays, the cells are cultured at 37° C. with and without compounds for 16-24 hours.

Experiment [1] addresses CFTR-mediated chloride transport in human intestinal epithelial enteroid cells (Homo sapiens, UniProt P13569). The experiment in a line: Membrane potential dye, Enteroid Assay A. Type of experiment: cell-based. As to conditions: for Ent. A Max Activity (%): % of chloride transport of triple combination control (3 μM N-[(6-amino-2-pyridyl)sulfonyl]-6-(3-fluoro-5-isobutoxy-phenyl)-2-[(4S)-2,2,4-trimethylpyrrolidin-1-yl]pyridine-3-carboxamide, 3 μM tezacaftor, 300 nM acute ivacaftor); for EC50: enteroid cells, 18-24 hours incubation, acute 10 μM forskolin and 300 nM ivacaftor, read-out: Ent. A EC50. The method, then: Base medium (ADF+++) consisted of Advanced DMEM/Ham's F12, 2 mM Glutamax, 10 mM HEPES, […] penicillin/streptomycin.
Intestinal enteroid maintenance medium (IEMM) consisted of ADF+++, 1×B27 supplement, 1×N2 supplement, 1.25 mM N-acetyl cysteine, 10 mM Nicotinamide, 50 ng/mL hEGF, 10 nM Gastrin, 1 μg/mL hR-spondin-1, 100 ng/mL hNoggin, TGF-b type 1 inhibitor A-83-01, 100 μg/mL Primocin, 10 μM P38 MAPK inhibitor SB202190.
Bath 1 Buffer consisted of 1 mM MgCl2, 160 mM NaCl, 4.5 mM KCl, 10 mM HEPES, 10 mM Glucose, 2 mM CaCl2.
Chloride Free Buffer consisted of 1 mM Magnesium Gluconate, 2 mM Calcium Gluconate, 4.5 mM Potassium Gluconate, 160 mM Sodium Gluconate, 10 mM HEPES, 10 mM Glucose.
Bath1 Dye Solution consisted of Bath 1 Buffer, 0.04% Pluronic F127, 20 μM Methyl Oxonol, 30 μM CaCCinh-A01, 30 μM Chicago Sky Blue.
Chloride Free Dye Solution consisted of Chloride Free Buffer, 0.04% Pluronic F127, 20 μM Methyl Oxonol, 30 μM CaCCinh-A01, 30 μM Chicago Sky Blue.
Chloride Free Dye Stimulation Solution consisted of Chloride Free Dye Solution, 10 μM forskolin, 100 μM IBMX, and 300 nM Compound III.
Human intestinal epithelial enteroid cells were obtained from the Hubrecht Institute for Developmental Biology and Stem Cell Research, Utrecht, The Netherlands and expanded in T-Flasks as previously described (Dekkers J F, Wiegerinck C L, de Jonge H R, Bronsveld I, Janssens H M, de Winter-de Groot K M, Brandsma A M, de Jong N W M, Bijvelds M J C, Scholte B J, Nieuwenhuis E E S, van den Brink S, Clevers H, van der Ent C K, Middendorp S and M Beekman J M. A functional CFTR assay using primary cystic fibrosis intestinal organoids. Nat Med. 2013 July; 19(7):939-45).
c. Enteroid Cell Harvesting and Seeding
Cells were recovered in cell recovery solution, collected by centrifugation at 650 rpm for 5 minutes at 4° C., resuspended in TrypLE and incubated for 5 minutes at 37° C. Cells were then collected by centrifugation at 650 rpm for 5 minutes at 4° C. and resuspended in IEMM containing 10 μM ROCK inhibitor (RI). The cell suspension was passed through a 40 μm cell strainer and resuspended at 1×10^6 cells/mL in IEMM containing 10 μM RI. Cells were seeded at 5000 cells/well into multi-well plates and incubated for overnight at 37° C., 95% humidity and 5% CO2 prior to assay.
d. Membrane Potential Dye, Enteroid Assay A
Enteroid cells were incubated with test compound in IEMM for 18-24 hours at 37° C., 95% humidity and 5% CO2. […] Briefly, cells were washed 5 times in Bath 1 Buffer. Bath 1 Dye Solution was added, and the cells were incubated for 25 minutes at room temperature. Following dye incubation, cells were washed 3 times in Chloride Free Dye Solution. Chloride transport was initiated by addition of Chloride Free Dye Stimulation Solution and the fluorescence signal was read for 15 minutes. […] Chloride transport was then expressed as a percentage of the chloride transport following treatment with 3 μM N-[(6-amino-2-pyridyl)sulfonyl]-6-(3-fluoro-5-isobutoxy-phenyl)-2-[(4S)-2,2,4-trimethylpyrrolidin-1-yl]pyridine-3-carboxamide, 3 μM (R)-1-(2,2-difluorobenzo[d][1,3]dioxol-5-yl)-N-(1-(2,3-dihydroxypropyl)-6-fluoro-2-(1-hydroxy-2-methylpropan-2-yl)-1H-indol-5-yl)cyclopropanecarboxamide and 300 nM acute N-[2,4-bis(1,1-dimethylethyl)-5-hydroxyphenyl]-1,4-dihydro-4-oxoquinoline-3-carboxamide triple combination control (% Activity).

CFTR-mediated chloride transport in human intestinal epithelial enteroid cells, sequence (P13569 with tags, fused parts or gaps DEL508-508): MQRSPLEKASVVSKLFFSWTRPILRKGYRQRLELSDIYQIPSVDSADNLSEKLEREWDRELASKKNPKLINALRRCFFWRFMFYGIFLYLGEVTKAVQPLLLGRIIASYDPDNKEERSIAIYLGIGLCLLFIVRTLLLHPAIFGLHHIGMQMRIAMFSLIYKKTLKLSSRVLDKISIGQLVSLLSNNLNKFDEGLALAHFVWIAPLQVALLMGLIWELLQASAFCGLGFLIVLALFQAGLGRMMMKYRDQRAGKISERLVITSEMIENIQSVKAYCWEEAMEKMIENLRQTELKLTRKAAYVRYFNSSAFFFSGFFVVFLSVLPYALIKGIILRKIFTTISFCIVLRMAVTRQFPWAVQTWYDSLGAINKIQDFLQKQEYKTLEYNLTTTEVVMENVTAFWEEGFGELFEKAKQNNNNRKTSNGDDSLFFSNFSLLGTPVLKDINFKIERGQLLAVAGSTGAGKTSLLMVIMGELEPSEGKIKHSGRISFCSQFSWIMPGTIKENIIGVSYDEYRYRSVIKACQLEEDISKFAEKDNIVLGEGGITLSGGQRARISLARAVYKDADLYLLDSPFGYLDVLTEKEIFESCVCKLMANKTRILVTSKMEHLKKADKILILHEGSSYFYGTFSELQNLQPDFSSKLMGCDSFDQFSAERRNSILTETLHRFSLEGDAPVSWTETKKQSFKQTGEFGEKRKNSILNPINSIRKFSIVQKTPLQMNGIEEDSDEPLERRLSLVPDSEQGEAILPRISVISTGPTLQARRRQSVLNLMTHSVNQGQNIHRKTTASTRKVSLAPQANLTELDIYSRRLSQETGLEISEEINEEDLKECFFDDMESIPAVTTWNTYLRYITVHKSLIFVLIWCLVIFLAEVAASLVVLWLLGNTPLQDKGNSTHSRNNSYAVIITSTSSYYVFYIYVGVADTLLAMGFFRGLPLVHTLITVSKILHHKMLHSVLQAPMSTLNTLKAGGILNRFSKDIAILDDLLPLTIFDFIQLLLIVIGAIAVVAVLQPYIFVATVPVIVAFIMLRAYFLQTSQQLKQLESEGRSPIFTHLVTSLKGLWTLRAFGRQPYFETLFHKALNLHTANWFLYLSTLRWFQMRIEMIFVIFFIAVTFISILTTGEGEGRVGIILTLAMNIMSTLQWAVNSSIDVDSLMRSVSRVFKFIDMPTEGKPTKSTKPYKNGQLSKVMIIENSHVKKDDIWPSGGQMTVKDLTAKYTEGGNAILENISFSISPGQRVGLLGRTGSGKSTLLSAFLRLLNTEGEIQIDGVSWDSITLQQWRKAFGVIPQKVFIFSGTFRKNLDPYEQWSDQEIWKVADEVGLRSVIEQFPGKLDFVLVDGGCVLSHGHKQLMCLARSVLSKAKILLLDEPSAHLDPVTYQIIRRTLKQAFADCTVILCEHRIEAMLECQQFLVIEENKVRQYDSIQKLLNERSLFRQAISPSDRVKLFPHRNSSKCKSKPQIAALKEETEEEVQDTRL
T1 sequence (P13569 with tags, fused parts or gaps DEL508-508): as above

Usually EC50 stands for the concentration at which the effect is half-maximal. With `Cc1cccc(C)c1-c1cc2nc(n1)NS(=O)(=O)c1cccc(c1)NC(=O)[C@@H]1C[C@@H](CN(CCC(C)(C)C)C1)O2` [Compound 5, (3S,7R)-5-(3,3-Dimethylbutyl)-19-(2,6-dimethylphenyl)-2-oxa-15λ^6-thia-5,9,16,18,21-pentaazatetracyclo[15.3.1.13,7.110,14]tricosa-1(20),10,12,14(22),17(21),18-hexaene-8,15,15-trione], on F508del in NIH 3T3 cells, the EC50 is under 1000 nM and the Emax was over 60%. Moreover, in experiment [1], the “Ent. A Max Activity (%)” value is “+++ (+++ is >60%)” and the EC50 was under 1000 nM.

Turning to `COCCN1C[C@@H]2C[C@H](C1)C(=O)Nc1cccc(c1)S(=O)(=O)Nc1nc(cc(-c3c(C)cccc3C)n1)O2` [Compound 7, (3S,7R)-19-(2,6-Dimethylphenyl)-5-(2-methoxyethyl)-2-oxa-15λ^6-thia-5,9,16,18,21-pentaazatetracyclo[15.3.1.13,7.110,14]tricosa-1(21),10(22),11,13,17,19-hexaene-8,15,15-trione], at F508del in NIH 3T3 cells, the EC50 was under 1000 nM and the Emax was over 60%. In experiment [1], the “Ent. A Max Activity (%)” value is “+++ (+++ is >60%)” and the EC50 was in the range of 1000 to 3000 nM.

With `Cc1cccc(C)c1-c1cc2nc(n1)NS(=O)(=O)c1cccc(c1)NC(=O)[C@@H]1C[C@@H](CN(C(=O)OCCC(C)C)C1)O2` [Compound 8, 3-Methylbutyl (3S,7R)-19-(2,6-dimethylphenyl)-8,15,15-trioxo-2-oxa-15λ^6-thia-5,9,16,18,21-pentaazatetracyclo[15.3.1.13,7.110,14]tricosa-1(21),10(22),11,13,17,19-hexaene-5-carboxylate], the EC50 (at F508del in NIH 3T3 cells; in experiment [1]) was under 1000 nM each time. Moreover, the “Ent. A Max Activity (%)” value in experiment [1] is given as “+++ (+++ is >60%)”.

As to `Cc1cccc(C)c1-c1cc2nc(n1)NS(=O)(=O)c1cccc(c1)NC(=O)[C@@H]1C[C@@H](CN(C3CCCCC3)C1)O2` [Compound 10, (3S,7R)-5-cyclohexyl-19-(2,6-dimethylphenyl)-2-oxa-15λ^6-thia-5,9,16,18,21-pentaazatetracyclo[15.3.1.13,7.110,14]tricosa-1(21),10(22),11,13,17,19-hexaene-8,15,15-trione], the results for the EC50 (on F508del in NIH 3T3 cells; in experiment [1]) were under 1000 nM and 1000 to 3000 nM, respectively. Further, in experiment [1], the “Ent. A Max Activity (%)” value is “++ (++ is 30-60%)”.

In the case of `Cc1cccc(C)c1-c1cc2nc(n1)NS(=O)(=O)c1cccc(c1)NC(=O)[C@H]1C[C@H](CN(CCC(C)(C)C)C1)O2` [Compound 11, (3R,7S)-5-(3,3-Dimethylbutyl)-19-(2,6-dimethylphenyl)-2-oxa-15λ^6-thia-5,9,16,18,21-pentaazatetracyclo[15.3.1.13,7.110,14]tricosa-1(21),10(22),11,13,17,19-hexaene-8,15,15-trione], at F508del in NIH 3T3 cells, the EC50 is under 1000 nM and the Emax was over 60%. For the same molecule, in experiment [1], the “Ent. A Max Activity (%)” value was “+ (+ is <30%)”.

As for `Cc1cccc(C)c1-c1cc2nc(n1)NS(=O)(=O)c1cccc(c1)NC(=O)[C@H]1C[C@@H](CN(CCC(C)(C)C)C1)O2` [Compound 12, (3S,7S)-5-(3,3-Dimethylbutyl)-19-(2,6-dimethylphenyl)-2-oxa-15λ^6-thia-5,9,16,18,21-pentaazatetracyclo[15.3.1.13,7.110,14]tricosa-1(21),10(22),11,13,17,19-hexaene-8,15,15-trione], on F508del in NIH 3T3 cells, the EC50 was under 1000 nM and the Emax was over 60%. Besides, in experiment [1], the “Ent. A Max Activity (%)” value is “++ (++ is 30-60%)” and the EC50 lay within 1000 to 3000 nM.

`Cc1cccc(C)c1-c1cc2nc(n1)NS(=O)(=O)c1cccc(n1)NC(=O)C1CC(CN(CCC(C)(C)C3CC3)C1)O2` (stereo not drawn) [Compound 15, 5-(3-Cyclopropyl-3-methylbutyl)-19-(2,6-dimethylphenyl)-2-oxa-15λ^6-thia-5,9,16,18,21,22-hexaazatetracyclo[15.3.1.13,7.110,14]tricosa-1(21),10,12,14(22),17,19-hexaene-8,15,15-trione]: on F508del in NIH 3T3 cells, the EC50 is under 1000 nM and the Emax is over 60%. Further, in experiment [1], the “Ent. A Max Activity (%)” value was “++ (++ is 30-60%)” and the EC50 was under 1000 nM.

Consider `Cc1cccc(C)c1-c1cc2nc(n1)NS(=O)(=O)c1cccc(c1)NC(=O)[C@@H]1C[C@@H](CN(CCCCC(C)(C)C)C1)O2` [Compound 21], for which, at F508del in NIH 3T3 cells, the EC50 was under 1000 nM and the Emax was over 60%. In addition, in experiment [1], the “Ent. A Max Activity (%)” value was “++ (++ is 30-60%)” and the EC50 is under 1000 nM.

For `Cc1cccc(C)c1-c1cc2nc(n1)NS(=O)(=O)c1cccc(c1)NC(=O)[C@@H]1C[C@@H](CN(CC(C3CC3)C3CC3)C1)O2` [Compound 24], on F508del in NIH 3T3 cells, the EC50 is under 1000 nM and the Emax is over 60%. In addition, in experiment [1], the “Ent. A Max Activity (%)” value was “++ (++ is 30-60%)” and the EC50 was under 1000 nM.

Regarding `Cc1cccc(C)c1-c1cc2nc(n1)NS(=O)(=O)c1cccc(c1)NC(=O)[C@@H]1C[C@@H](CN(CC34CC(C3)C4)C1)O2` [Compound 25], at F508del in NIH 3T3 cells, the EC50 was under 1000 nM and the Emax is over 60%. Moreover, in experiment [1], the “Ent. A Max Activity (%)” value was “++ (++ is 30-60%)” and the EC50 was under 1000 nM.

For `Cc1cccc(C)c1-c1cc2nc(n1)NS(=O)(=O)c1cccc(c1)NC(=O)[C@@H]1C[C@@H](CN(CCC3(C(F)(F)F)CC3)C1)O2` [Compound 27], at F508del in NIH 3T3 cells, the EC50 is under 1000 nM and the Emax is over 60%. Further, in experiment [1], the “Ent. A Max Activity (%)” value is on record as “+++ (+++ is >60%)” and the EC50 was under 1000 nM.

With `Cc1cccc(C)c1-c1cc2nc(n1)NS(=O)(=O)c1cccc(c1)NC(=O)[C@@H]1C[C@@H](CN(CCC3CC3)C1)O2` [Compound 28], on F508del in NIH 3T3 cells, the EC50 was under 1000 nM and the Emax is over 60%. Moreover, in experiment [1], the “Ent. A Max Activity (%)” value was “++ (++ is 30-60%)” and the EC50 was under 1000 nM.

The record behind these values is patent US20230416275A1, “MODULATORS OF CYSTIC FIBROSIS TRANSMEMBRANE CONDUCTANCE REGULATOR” (VERTEX PHARMACEUTICALS INCORPORATED, priority 2020, published 2023).
